Reference: patent publication US12116371B2, “Substituted pyridines as irreversible inhibitors of menin-MLL interaction” (BIOMEA FUSION, INC., priority 2018, dated 2024)
Read-outs that look alike come from different tables or passages of the source.

Tests used:
Experiment in all cases: Long-term proliferation (LTP) assay, CellTiterGlo (Example 103)
HL-60 cells = type: cell-based; settings: for IC50: Homo sapiens
Procedure: (§1) The day of the experiment (TO) all the cell line suspensions were counted by Cell Viability Analyser, Vi-CELL and properly diluted with fresh medium to obtain the cell density reported in the Test System paragraph.
(§2) Cells were tested after 4 passages after thawing.
(§3) 200 μL/well and 150 μL/well of cell suspension were added into the 0.4 µL/well and 0.3 μL/well compound plates, respectively. • Cell plate containing 200 μL/well suspension was incubated at 37° C. in a humidified incubator with 5% CO2. • From each well of the 150 µL/well cell assay plate, 100 μL were harvested and transferred into a 96-well Optiplate (Perkin Elmer, Cat. n. 6005290) and cell viability was measured as described in 4.3 paragraphs (TO). • After four days in culture (T4) 150 μL/well of fresh medium were added into a new […] copy compound plate. • From each well of the 200 μL/well cell assay plate: • 100 μL were sampled for the cell viability measurement as described in 4.3 paragraphs (T4). • 50 μL were harvested and added to the 150 μL/well compound plate prepared as described in the first point to dilute 1:4 the cell suspension. • The cell assay plate diluted and containing 200 µL/well suspension were incubated at 37° C. in a humidified incubator with 5% CO2.
(§4) At T7-T11-T14 it was proceeded as described in T4, with the exception that no further cell dilution was carried out at T14.
(§5) Plates containing the samples to be tested were equilibrated at room temperature for approximately 30 min and then 30 μL/well of the Promega CellTiterGlo® reagent were added. Contents will be mixed for 5 min on an orbital shaker to induce cell lysis and then incubated at room temperature for an additional 10 min to stabilize the luminescent signal.
(§6) Luminescence was read by using VictorV (Perkin Elmer) multilabel plate reader using the standard protocol for luminescence in 96 well plate.
(§7) Data were expressed as % of inhibition compared to the 0.2% DMSO negative control, and was calculated as follows: % inhibition=100−[(RLU sample)×100/(RLU average controls*)] • *cells containing 0.2% DMSO
(§8) CRCs were analysed by GraphPad and IC50 values were calculated by non-linear regression using 4 parameter-logistic equation. IC50 (M) values were reported in the final data table.

RS4-11 (MLL-AF4) cells = type: cell-based; settings: for IC50: Homo sapiens, RS4-11 (MLL-AF4), LTP assay
Procedure: as §1, §2, §3, §4, §5, §6, §7, §8

MOLM-13 (MLL-AF9) cells = type: cell-based, human; settings: for IC50: Homo sapiens, MOLM-13 (MLL-AF9), LTP assay
Procedure: as §1, §2, §3, §4, §5, §6, §7, §8

MV4-11 (MLL-AF4) cells = type: cell-based, human; settings: for IC50: Homo sapiens, MV4-11 (MLL-AF4), LTP assay
Procedure: as §1, §2, §3, §4, §5, §6, §7, §8

[1] = 96 h, Day 4, read-out: Day 4 IC50
[2] = 168 h, Day 7, read-out: Day 7 IC50
[3] = 264 h, Day 11, read-out: Day 11 IC50
[4] = 336 h, Day 14, read-out: Day 14 IC50

**Q.** Which results are given for `C=CC(=O)NC1CCCN(Cc2ccnc(C(=O)Nc3ccc(-c4cc5c(N6CCOCC6)ncnc5[nH]4)cc3)c2)C1` (stereo not shown) [Compound 10]?
**A.** IC50 (HL-60 cells; 96 h, Day 4, LTP assay, read-out: Day 4 IC50): 430 nM; IC50 (HL-60 cells; 168 h, Day 7, LTP assay, read-out: Day 7 IC50): 260 nM; IC50 (HL-60 cells; 264 h, Day 11, LTP assay, read-out: Day 11 IC50): 290 nM; IC50 (HL-60 cells; 336 h, Day 14, LTP assay, read-out: Day 14 IC50): 270 nM; effect on cell viability at T4 (HL-60 cells; T4, increasing concentrations): fully inhibited; IC50 (RS4-11 (MLL-AF4) cells; [1]): 500 nM; IC50 (RS4-11 (MLL-AF4) cells; [2]): 470 nM; IC50 (RS4-11 (MLL-AF4) cells; [3]): > 5000 nM; effect on cell viability at T4 (RS4-11 (MLL-AF4) cells; RS4;11, T4, increasing concentrations): fully inhibited; IC50 (MOLM-13 (MLL-AF9) cells; [1]): 260 nM; IC50 (MOLM-13 (MLL-AF9) cells; [2]): 280 nM; IC50 (MOLM-13 (MLL-AF9) cells; [3]): 240 nM; IC50 (MOLM-13 (MLL-AF9) cells; [4]): 230 nM; effect on cell viability at T4 (MOLM-13 (MLL-AF9) cells; MOLM-13, T4, increasing concentrations): fully inhibited; IC50 (MV4-11 (MLL-AF4) cells; [1]): 460 nM; IC50 (MV4-11 (MLL-AF4) cells; [2]): 290 nM; IC50 (MV4-11 (MLL-AF4) cells; [3]): 220 nM; IC50 (MV4-11 (MLL-AF4) cells; [4]): 200 nM; effect on cell viability at T4 (MV4-11 (MLL-AF4) cells; MV4-11, T4, increasing concentrations): fully inhibited
